Data as given in a melting point compilation (Tetko et al.; mined from patent text by program, amines drawn as free bases though some values may be those of a salt).

Row | melting point | SMILES
1 | 86 °C | CCCCCCCCCOc1ccc(-c2ccc(C3CCC(C#N)(CCCCCCCCC)CC3)cc2)cc1 (stereo not given)
2 | 114 to 115 °C | Cc1c(N)c(C)c(Cc2ccc(C(C)C)cc2)c2c1CCO2
3 | 213 °C | CC(=O)NCC1CN(c2ccc(-c3cccc(CN(CC(N)=O)CC(N)=O)c3)c(F)c2)C(=O)O1 (stereo not given)
4 | 94 to 110 °C | COc1cc2c(cc1Nc1ncc(F)c(Nc3ccc(N4CCOCC4)cc3OC)n1)CCN(CC(=O)OC(C)C)CC2
5 | 136 to 138 °C | CN(Cc1cc(Cl)c(O)c(Br)c1)C1CCCCC1
6 | 127 to 128 °C | CCCc1nc(N)nc(N2CCOCC2)n1
7 | 150 °C | COc1cc(C)cc(OC)c1-c1nc(=NO)c(=O)n(C)c2ccccc12
8 | 178 to 180 °C | O=C(O)CCOc1cccc(CN2CCCCC2)c1
9 | 50 to 54 °C | CCN1CCCC1CNC(=O)c1cc(N(C#N)S(C)(=O)=O)ccc1OC (stereo not given)
10 | 160 to 162 °C | O=C1C(=Cc2ccncc2)c2ccccc2N1c1ccccc1
11 | 142 to 146 °C | COCCOCC(=O)N(c1c(C)c(C)cc2ccccc12)C1CCOC1=O (stereo not given)
12 | 213 to 214 °C | CC1SC(N2N=C(c3ccc([N+](=O)[O-])cc3)c3cc4c(cc3CC2C)OCO4)=NC1=O (stereo not given)
13 | 104 to 105 °C | CCC(O)(c1ccc(Cl)cc1)c1ccc(OCCCN2CCCCC2)cc1 (stereo not given)
14 | 184 to 186 °C | Cc1c(Br)sc2cc(C(=O)Cn3ccnc3)ccc12
15 | 67.5 to 69.5 °C | CC(=O)OCCOc1ccc(OCCOC(C)=O)c(N)c1
16 | 240 °C | COc1cccc(OC)c1-c1cc(C(=O)NC2(C(=O)O)C3CC4CC(C3)CC2C4)nn1-c1ccc(NC(=O)CCN2CCCCC2)cc1C (stereo not given)
17 | 70 to 74 °C | O=C(Nc1nccs1)C(CC1CCCC1)c1ccc(NS(=O)(=O)C(F)(F)F)cc1 (stereo not given)
18 | 54 °C | COc1cccc(CCl)c1SCc1ccccc1
19 | 50 to 51 °C | CCOC(=O)c1cnoc1-c1cc(Cl)cc(Cl)c1

Row | melting point | SMILES
20 | 95 to 99 °C | O=C(O)C(CC1CCCC1)c1cccc([N+](=O)[O-])c1 (stereo not given)
21 | 229 to 230 °C | CC1(C)CCC(C)(C)c2cc3cc(-c4ccc(C(=O)O)o4)ccc3cc21
22 | 143 to 145 °C | CC(=O)Oc1ccccc1C(=O)Oc1nc[nH]c1C(N)=O
23 | 71.3 to 76.5 °C | COCCOC(=O)NNC(=O)OCCOC
24 | 266 to 269 °C | NC(=O)c1cc([N+](=O)[O-])ccc1SSc1ccc([N+](=O)[O-])cc1C(N)=O
25 | 78 °C | O=C(c1ccccc1O)c1ccccc1Br
26 | 245 to 247 °C | COc1ccc(C(=O)C2=C(O)C(=O)N(c3nnc(C)s3)C2c2ccc(OC(F)(F)F)cc2)cc1 (stereo not given)
27 | 86 to 87 °C | Cc1cc(C2=C(Cl)CCN(C(=O)c3ccccc3)C2)no1
28 | 198 to 200 °C | CCCc1nc2c(N)nc3cc(OCc4ccc(F)cc4)ccc3c2n1CC(C)C
29 | 92 to 93 °C | COc1ccc(Br)c(C=O)c1OC
30 | 152 to 154 °C | Cc1cc(NS(=O)(=O)c2ccc(F)cc2)cc(C)c1S(=O)(=O)C[N+](=O)[O-]
31 | 106 to 107 °C | COC(=O)c1ccnc(-c2cccc3cc(Cc4cccc(C(F)(F)F)c4)sc23)c1
32 | 233 °C | COc1ccc(N2C(=O)C(OC)C2c2ccc(C(=O)O)cc2)cc1 (stereo not given)
33 | 111 °C | Cc1ccc(-c2c3ccccc3nn2Cc2ccccc2)cc1
34 | 98 to 101 °C | CCOC(=O)C1=C(C)NC(C)=C(C(=O)OCCSC(C)=O)C1c1cccc([N+](=O)[O-])c1 (stereo not given)
35 | 171 to 173 °C | O=S1c2ccccc2N(CCCCl)c2ccccc21
36 | 258 to 260 °C | CCn1nc2oc(C=CC(N)=O)c(C)c2c1C
37 | 218 to 220 °C | O=c1cc(C(F)(F)F)c2ccc(N3CCOCC3)nc2o1
38 | 200 °C | CCCc1ncc(/C=C(\Cc2cccs2)C(=O)O)n1Cc1ccccc1Cl

Row | SMILES | melting point
39 | CC12CCC3C(CCC4=CC(=CF)CCC43CS)C1CCC2=O (stereo not given) | 118 to 120 °C
40 | CCSCC12CCC(=O)C=C1CCC1C3CC(C)C(=O)C3(C)CCC12 (stereo not given) | 102 °C
